The results in this text go back to patent publication US20230234942A1, “COMPOUNDS FOR TREATING HUNTINGTON'S DISEASE” (PTC Therapeutics, Inc., priority 2020, published 2023).

What is called IC50 is the concentration at which inhibition is half-maximal. Low values mean greater potency in that assay, high ones weaker potency in that assay.

The test relates to Endogenous Huntingtin Protein. Briefly: Endogenous Huntingtin Protein Assay (ELISA-based MSD electrochemiluminescence). The following applies: Table 2; MSD plates coated with MW1 (expanded polyglutamine) or MAB2166 capture antibody; "inactive" = result above the detection limit of the assay. The test is classed as cell-based. As to the method:
Compounds of Formula (I) were tested using the Meso Scale Discovery (MSD) Assay provided in International Application No. PCT/US2016/066042, filed on Dec. 11, 2016 and claiming priority to U.S. Provisional Application 62/265,652 filed on Dec. 10, 2015, the entire contents of which are incorporated herein by reference.
The Endogenous Huntingtin Protein assay used in Biological Example 1 was developed using the ELISA-based MSD electrochemiluminescence assay platform.
Meso Scale Discovery (MSD) 96-well or 384-well plates were coated overnight at 4° C. with MW1 (expanded polyglutamine) or MAB2166 monoclonal antibody (for capture) at a concentration of 1 μg/mL in PBS (30 μL per well). Plates were then washed three times with 300 μL wash buffer (0.05% Tween-20 in PBS) and blocked (100 μL blocking buffer; 5% BSA in PBS) for 4-5 hours at room temperature with rotational shaking and then washed three times with wash buffer.
Samples (25 μL) were transferred to the antibody-coated MSD plate and incubated overnight at 4° C. After removal of the lysates, the plate was washed three times with wash buffer, and 25 μL of #56565 (Cell signaling; rabbit monoclonal) secondary antibody (diluted to 0.25 μg/mL in 0.05% Tween-20 in blocking buffer) was added to each well and incubated with shaking for 1 Hour at room temperature. Following incubation with the secondary antibody, the wells were rinsed with wash buffer after which 25 μL of goat anti-rabbit SULFO TAG secondary detection antibody (required aspect of the MSD system) (diluted to 0.25 μg/mL in 0.05% Tween-20 in blocking buffer) was added to each well and incubated with shaking for 1 hour at room temperature. After rinsing three times with wash buffer, 150 μL of read buffer T with surfactant (MSD) were added to each empty well, and the plate was imaged on a SI 6000 imager (MSD) according to manufacturers' instructions provided for 96- or 384-well plates.
Background: An ELISA detects its analyte on a solid surface through an enzyme-linked reagent.
Turning to `C[C@@H]1CN(c2ncc(-c3ccc(-c4ccc5nc(C(F)(F)F)cn5n4)cc3O)nn2)C[C@H](C)N1` [Cpd 118, 2-{3-[(3R,5S)-3,5-dimethylpiperazin-1-yl]-1,2,4-triazin-6-yl)-5-[2-(trifluoromethyl)imidazo[1,2-b]pyridazin-6-yl]phenol], the “IC50 (nM)” value was “inactive”. In turn, `Oc1cc(-c2c[nH]nc2F)ccc1-c1cnc(N2CCN[C@H](C3CC3)C2)nn1` [Cpd 7, 2-{3-[(3R)-3-cyclopropylpiperazin-1-yl]-1,2,4-triazin-6-yl}-5-(3-fluoro-1H-pyrazol-4-yl)phenol] gave a half-inhibitory concentration (IC50) of 6.9 nM. `CC1CN(c2ncc(-c3ccc(-c4cc(F)c5nn(C)cc5c4)cc3O)nn2)CCN1` (stereo not drawn) [Cpd 67, 5-(7-fluoro-2-methyl-2H-indazol-5-yl)-2-[3-(3-methylpiperazin-1-yl)-1,2,4-triazin-6-yl]phenol]: the concentration for half-maximal inhibition (IC50) stood at 2.1 nM.

Compound `[2H]C([2H])([2H])n1cc(-c2ccc(-c3cnc(N4CCNC(C(C)(C)O)C4)nn3)c(O)c2)cn1` (stereo not drawn) [Cpd 19, 2-{3-[3-(2-hydroxypropan-2-yl)piperazin-1-yl]-1,2,4-triazin-6-yl}-5-[1-(^2H3)methyl-1H-pyrazol-4-yl]phenol] gave an IC50 of 17.1 nM.

The compound `COc1cc(-c2ccc(-c3cnc(N4C[C@@H](C)N[C@@H](C(C)(C)C)C4)nn3)c(O)c2)ncn1` [Cpd 255, 2-{3-[(3S,5R)-3-tert-butyl-5-methylpiperazin-1-yl]-1,2,4-triazin-6-yl}-5-(6-methoxypyrimidin-4-yl)phenol] showed an IC50 of 341 nM. The compound `CC(C)(O)C1CN(c2ncc(-c3ccc(-n4nccn4)cc3O)nn2)CCN1` (stereo not drawn) [Cpd 14, 2-{3-[3-(2-hydroxypropan-2-yl)piperazin-1-yl]-1,2,4-triazin-6-yl}-5-(2H-1,2,3-triazol-2-yl)phenol] yielded an IC50 of 12.2 nM.

The compound `Oc1cc(-n2nccn2)cnc1-c1cnc(N2CCN[C@@H](C3CC3)C2)nn1` [Cpd 182, 2-{3-[(3S)-3-cyclopropylpiperazin-1-yl]-1,2,4-triazin-6-yl}-5-(2H-1,2,3-triazol-2-yl)pyridin-3-ol] showed an IC50 of 173 nM.

For `COC[C@H]1CN(c2ncc(-c3ccc(-c4cn[nH]c4)cc3O)nn2)CCN1` [Cpd 53, 2-{3-[(3R)-3-(methoxymethyl)piperazin-1-yl]-1,2,4-triazin-6-yl}-5-(1H-pyrazol-4-yl)phenol], the IC50 was determined as 435 nM. `CC(C)[C@H]1CN(c2ncc(-c3ncc(-c4cc(F)c5nn(C)cc5c4)cc3O)nn2)CCN1` [Cpd 157, 5-(7-fluoro-2-methyl-2H-indazol-5-yl)-2-{3-[(3S)-3-(propan-2-yl)piperazin-1-yl]-1,2,4-triazin-6-yl}pyridin-3-ol] registered a half-inhibitory concentration (IC50) of 7.8 nM. “2-{3-[(3S,5R)-3-tert-butyl-5-methylpiperazin-1-yl]-1,2,4-triazin-6-yl}-5-(1,2,4-thiadiazol-3-yl)phenol [Cpd 254]”: it took 556 nM to reach half-maximal inhibition (IC50). Same read-out and setting: for `CC(C)[C@H]1CN(c2ncc(-c3ccc(-c4cnc5nn(C)nc5c4)cc3O)nn2)CCN1` [Cpd 212, 5-(2-methyl-2H-[1,2,3]triazolo[4,5-b]pyridin-6-yl)-2-{3-[(3S)-3-(propan-2-yl)piperazin-1-yl]-1,2,4-triazin-6-yl}phenol] the value was 3.3 nM; for `Cc1nc2ccc(-c3ccc(-c4cnc(N5C[C@@H](C)N[C@@H](C)C5)nn4)c(O)c3)nn2n1` [Cpd 100, 2-{3-[(3R,5S)-3,5-dimethylpiperazin-1-yl]-1,2,4-triazin-6-yl}-5-(2-methyl[1,2,4]triazolo[1,5-b]pyridazin-6-yl)phenol], 10.9 nM; for `CC(C)[C@H]1CN(c2ncc(-c3cc(F)c(-c4cn[nH]c4)cc3O)nn2)CCN1` [Cpd 158, 4-fluoro-2-{3-[(3S)-3-(propan-2-yl)piperazin-1-yl]-1,2,4-triazin-6-yl}-5-(1H-pyrazol-4-yl)phenol], 5.6 nM. `Cc1nc2c(C)cc(-c3ccc(-c4cnc(N5CCN[C@@H](C(C)C)C5)nn4)c(O)c3)nn2n1` [Cpd 92, 5-(2,8-dimethyl[1,2,4]triazolo[1,5-b]pyridazin-6-yl)-2-{3-[(3S)-3-(propan-2-yl)piperazin-1-yl]-1,2,4-triazin-6-yl}phenol] returned an IC50 of 7.9 nM. Compound `CN1CCN(c2ncc(-c3ncc(-c4cn[nH]c4)cc3O)nn2)CC1` [Cpd 124, 2-[3-(4-methylpiperazin-1-yl)-1,2,4-triazin-6-yl]-5-(1H-pyrazol-4-yl)pyridin-3-ol] yielded a half-inhibitory concentration (IC50) of 609 nM. On to `Cc1ccc(-c2ccc(-c3cnc(N4CCN[C@@H](C(C)C)C4)nn3)c(O)c2)cn1` [Cpd 160, 5-(6-methylpyridin-3-yl)-2-{3-[(3S)-3-(propan-2-yl)piperazin-1-yl]-1,2,4-triazin-6-yl]phenol], for which half-maximal inhibition (IC50) was put at 789 nM. In turn, `CC(C)[C@H]1CN(c2ncc(-c3ccc(-c4cn[nH]c4)cc3O)nn2)C[C@@H](C)N1` [Cpd 229, 2-{3-[(3R,5S)-3-methyl-5-(propan-2-yl)piperazin-1-yl]-1,2,4-triazin-6-yl}-5-(1H-pyrazol-4-yl)phenol] gave a 50% inhibitory concentration (IC50) of 18.2 nM. In turn, `CN1CCN(c2ncc(-c3ccc(-c4cn[nH]c4)cc3O)nn2)CC1C1COC1` (stereo not drawn) [Cpd 187, 2-{3-[4-methyl-3-(oxetan-3-yl)piperazin-1-yl]-1,2,4-triazin-6-yl}-5-(1H-pyrazol-4-yl)phenol] returned an IC50 of 401 nM. For `Cn1cc2cc(-c3ccc(-c4cnc(N5CCN6CCCC6C5)nn4)c(O)c3)cc(F)c2n1` (stereo not drawn) [Cpd 95, 5-(7-fluoro-2-methyl-2H-indazol-5-yl)-2-[3-(hexahydropyrrolo[1,2-a]pyrazin-2(1H)-yl)-1,2,4-triazin-6-yl]phenol], the IC50 is 8.3 nM. On to `C[C@@H]1CN(c2ncc(-c3ccc(-c4c[nH]nc4F)cc3O)nn2)C[C@H](C(C)(C)C)N1` [Cpd 248, 2-{3-[(3S,5R)-3-tert-butyl-5-methylpiperazin-1-yl]-1,2,4-triazin-6-yl]-5-(3-fluoro-1H-pyrazol-4-yl)phenol], for which the IC50 amounted to 74.9 nM. Turning to `Oc1cc(-c2cn[nH]c2)ccc1-c1cnc(N2CCNC(c3ccccc3)C2)nn1` (stereo not drawn) [Cpd 61, 2-[3-(3-phenylpiperazin-1-yl)-1,2,4-triazin-6-yl]-5-(1H-pyrazol-4-yl)phenol], the midpoint of inhibition, the IC50, lay at 1440 nM.

In the case of `Cc1cn2cc(-c3ccc(-c4cnc(N5C[C@@H](C)N[C@@H](C)C5)nn4)c(O)c3)ncc2n1` [Cpd 86, 2-{3-[(3R,5S)-3,5-dimethylpiperazin-1-yl]-1,2,4-triazin-6-yl}-5-(2-methylimidazo[1,2-a]pyrazin-6-yl)phenol], half-maximal inhibition (IC50) required 6 nM. As for `CC(C)[C@H]1CN(c2ncc(-c3ccc(-c4nnc(C(F)F)s4)cc3O)nn2)CCN1` [Cpd 205, 5-[5-(difluoromethyl)-1,3,4-thiadiazol-2-yl]-2-{3-[(3S)-3-(propan-2-yl)piperazin-1-yl]-1,2,4-triazin-6-yl}phenol], the IC50 is 904 nM.

`CC(C)(C)[C@H]1CN(c2ncc(-c3ccc(-n4nccn4)cc3O)nn2)CCN1` [Cpd 18, 2-{3-[(3S)-3-tert-butylpiperazin-1-yl]-1,2,4-triazin-6-yl}-5-(2H-1,2,3-triazol-2-yl)phenol] yielded an IC50 of 15.1 nM.

On to `[2H]C([2H])([2H])Oc1cc(-c2ccc(-c3cnc(N4CCN[C@@H](CC)C4)nn3)c(O)c2)ncn1` [Cpd 133, 2-{3-[(3S)-3-ethylpiperazin-1-yl]-1,2,4-triazin-6-yl}-5-{6-[(^2H3)methyloxy]pyrimidin-4-yl}phenol], for which the IC50 stood at 13 nM. Still for that read-out and setting: for `Cc1cn2cc(-c3ccc(-c4cnc(N5CCN[C@@H](C(C)C)C5)nn4)c(O)c3)nc(C)c2n1` [Cpd 96, 5-(2,8-dimethylimidazo[1,2-a]pyrazin-6-yl)-2-{3-[(3S)-3-(propan-2-yl)piperazin-1-yl]-1,2,4-triazin-6-yl]phenol] the value was 8.6 nM; for `CC(C)(O)C1CN(c2ncc(-c3ccc(-c4c[nH]nc4F)cc3O)nn2)CCN1` (stereo not drawn) [Cpd 4, 5-(3-fluoro-1H-pyrazol-4-yl)-2-{3-[3-(2-hydroxypropan-2-yl)piperazin-1-yl]-1,2,4-triazin-6-yl}phenol], 4.5 nM.

Compound `CC(C)C1CN(c2ncc(-c3ccc(-c4cnn(C)c4)cc3O)nn2)CCN1` (stereo not drawn) [Cpd 35, 5-(1-methyl-1H-pyrazol-4-yl)-2-{3-[3-(propan-2-yl)piperazin-1-yl]-1,2,4-triazin-6-yl}phenol] gave an IC50 of 46.1 nM. Still for that read-out and setting: for `COc1cc(-c2ccc(-c3cnc(N4C[C@@H](C)N[C@@H](C5CC5)C4)nn3)c(O)c2)nc(OC)n1` [Cpd 219, 2-{3-[(3S,5R)-3-cyclopropyl-5-methylpiperazin-1-yl]-1,2,4-triazin-6-yl}-5-(2,6-dimethoxypyrimidin-4-yl)phenol] the value was 13.7 nM; for `Cn1nc2cnc(-c3ccc(-c4cnc(N5CCN[C@@H](C6CC6)C5)nn4)c(O)c3)cc2n1` [Cpd 172, 2-{3-[(3S)-3-cyclopropylpiperazin-1-yl]-1,2,4-triazin-6-yl}-5-(2-methyl-2H-[1,2,3]triazolo[4,5-c]pyridin-6-yl)phenol], 4 nM.
